Measurements taken from the OligoGym collection.
Several values for one entry are separate records, joined by “and”; a condition that tells them apart may be missing. Equal entries are not always repeated. After the bases stand the sugars from the 5' end (letter, count) and the backbone: PS all phosphorothioate, else s phosphorothioate and o phosphodiester by linkage. Methylation of C is not given here. e = 2'-O-(2-methoxyethyl) (MOE); k = constrained ethyl (cEt); d = 2'-deoxy (DNA)

Molecular target: APOL1
Conditions: ASO

Row | Sequence | target mRNA inhibition (A431, 0.0156 µM) [%] | target mRNA inhibition (A431, 0.0625 µM) | target mRNA inhibition (A431, 0.25 µM) | target mRNA inhibition (A431, 1 µM) | target mRNA inhibition (A431, 2 µM) [%] | target mRNA inhibition (A431, 0.04 µM)
1 | GCATTCAGAATTTCCA (sugars k3 d4 k3 e1 d5, PS) | 33 | 73% | 90% | 92% | 95 | –
2 | GCTAATTTTCTGACTG (sugars k4 d9 k3, PS) | – | 77% and 60% | 95% and 85% | 98% and 91% | – | –
3 | GCTAATTTTCTGACTG (sugars kekddddeekkddddd, PS) | 13 | 42% | 69% | 87% | 94 | –
4 | GCTAATTTTCTGACTG (sugars kkddddekekeddddd, PS) | – | – | – | – | 88 | –
5 | GCTAATTTTCTGACTG (sugars kkddddkekekddddd, PS) | 28 | 63% | 86% | 92% | 96 | 50%
6 | GCTAATTTTCTGACTG (sugars kkddddkekekkdddd, PS) | – | – | – | – | 71 | –
7 | GCTAATTTTCTGACTG (sugars kkkddddkdkdkdddd, PS) | 40 | 66% | 85% | 93% | 93 | 34%
8 | GCTTTAAACTCAGGTG (sugars k2 d4 e4 k2 d4, PS) | – | – | – | – | 95 | –
9 | GCTTTAAACTCAGGTG (sugars k4 d9 k3, PS) | – | – | 76% and 79% | 91% and 89% and 82% | – | 11%
10 | GCTTTAAACTCAGGTG (sugars kdddddkekekddddd, PS) | – | – | – | – | 92 | –
11 | GCTTTAAACTCAGGTG (sugars kkddddkekekddddd, PS) | – | – | – | – | 86 | –
12 | GCTTTAAACTCAGGTG (sugars kkddddkekekkdddd, PS) | – | – | – | – | 50 | –
13 | GGAATTATGGAATTGC (sugars k4 d9 k3, PS) | – | 74% | 93% | 98% | – | 55%
14 | GGAATTATGGAATTGC (sugars kekddddeekkddddd, PS) | 23 | 63% | 90% | 97% | 98 | –
15 | GGAATTATGGAATTGC (sugars kkddddkekekddddd, PS) | – | – | – | – | 82 | –
16 | GGAATTATGGAATTGC (sugars kkkddddkekeddddd, PS) | – | – | – | – | 55 | –
17 | GGAATTATGGAATTGC (sugars kkkddddkekekdddd, PS) | – | – | – | – | 66 | –
18 | GGCAAGGCTAAGTTCC (sugars k4 d9 k3, PS) | – | 41% | 75% | 84% | – | –
19 | GGCAGTTTTGTAAGTG (sugars kkkddddkekekdddd, PS) | – | – | – | – | 32 | –
20 | GGGAAATGAACGCAAT (sugars k4 d9 k3, PS) | – | 22% | 60% | 83% | – | –
21 | GGGAATTATGGAATTG (sugars k3 d4 k3 e1 d5, PS) | – | – | – | – | 77 | –
22 | GGGTTATGAAATTATT (sugars k2 d4 e3 k2 d5, PS) | – | – | – | – | 77 | –
23 | GGGTTATGAAATTATT (sugars kkkddddkekekdddd, PS) | – | – | – | – | 73 | –
24 | GTATTGCCAGCTAAGG (sugars kdddddkekekddddd, PS) | 29 | 50% | 70% | 87% | 93 | –
25 | GTATTGCCAGCTAAGG (sugars kkddddkekekkdddd, PS) | – | – | – | – | 74 | –

Row | Sequence | target mRNA inhibition (A431, 0.0156 µM) [%] | target mRNA inhibition (A431, 0.0625 µM) | target mRNA inhibition (A431, 0.25 µM) | target mRNA inhibition (A431, 1 µM) | target mRNA inhibition (A431, 2 µM) [%] | target mRNA inhibition (A431, 0.04 µM)
26 | GTATTGTTTTTGTGGG (sugars kddddkekekeddddd, PS) | – | – | – | – | 70 | –
27 | GTATTTCTTGATGTGG (sugars k2 d4 e3 k2 d5, PS) | – | – | – | – | 97 | –
28 | GTATTTCTTGATGTGG (sugars kkddddkdkdkddddd, PS) | – | – | – | – | 87 | –
29 | GTATTTCTTGATGTGG (sugars kkddddkekekddddd, PS) | – | – | – | – | 75 | –
30 | GTATTTCTTGATGTGG (sugars kkddddkekekkdddd, PS) | – | – | – | – | 52 | –
31 | GTATTTCTTGATGTGG (sugars kkkddddkdkdkdddd, PS) | 24 | 59% | 82% | 86% | 92 | –
32 | GTATTTCTTGATGTGG (sugars kkkddddkekeddddd, PS) | 50 | 80% | 96% | 97% | 98 | –
33 | GTCATATCAGATGGGT (sugars k4 d9 k3, PS) | – | 52% | 77% | 91% | – | –
34 | GTCATTAGTGCTATAG (sugars k4 d9 k3, PS) | – | 68% | 87% | 93% | – | –
35 | GTGTATTTCTTGATGT (sugars kkddddekekeddddd, PS) | 36 | 65% | 83% | 92% | 94 | –
36 | GTGTGATAACTAGCTG (sugars k4 d9 k3, PS) | – | 78% | 88% | 93% | – | –
37 | GTGTTATATTTGATCC (sugars k2 d4 e3 k2 d5, PS) | – | – | – | 98% | 98 | 52% and 50%
38 | GTGTTATATTTGATCC (sugars k3 d4 k3 e1 d5, PS) | 32 | 63% | 84% | 91% | 94 | 50%
39 | GTGTTATATTTGATCC (sugars kkddddekekeddddd, PS) | – | – | – | – | 96 | –
40 | GTGTTATATTTGATCC (sugars kkddddkekekddddd, PS) | – | – | – | – | 78 | –
41 | GTGTTATATTTGATCC (sugars kkkddddkekekdddd, PS) | – | – | – | – | 75 | –
42 | GTTATATTTGATCCTC (sugars k2 d4 e4 k2 d4, PS) | – | – | – | – | 69 | –
43 | GTTATATTTGATCCTC (sugars k3 d5 k3 d5, PS) | – | 86% | 93% | 99% | 100 | –
44 | GTTATATTTGATCCTC (sugars kkkddddkdkdkdddd, PS) | – | – | – | – | 92 | –
45 | GTTATGAAATTATTGG (sugars kkdddddkekeddddd, PS) | – | – | – | – | 68 | –
46 | GTTATGAAATTATTGG (sugars kkddddkdkdkddddd, PS) | – | – | – | – | 71 | –
47 | GTTATGAAATTATTGG (sugars kkkddddkekeddddd, PS) | 9 | 42% | 75% | 85% | 93 | –
48 | GTTCAAAAGCAGCATT (sugars k2 d4 e3 k2 d5, PS) | – | – | – | – | 86 | –
49 | GTTCAAAAGCAGCATT (sugars kddddkekekeddddd, PS) | – | – | – | – | 33 | –
50 | GTTCAAAAGCAGCATT (sugars kkdddddkekeddddd, PS) | – | – | – | – | 89 | –

Row | Sequence | target mRNA inhibition (A431, 0.0156 µM) [%] | target mRNA inhibition (A431, 0.0625 µM) | target mRNA inhibition (A431, 0.25 µM) | target mRNA inhibition (A431, 1 µM) | target mRNA inhibition (A431, 2 µM) [%] | target mRNA inhibition (A431, 0.04 µM)
51 | GTTCAAAAGCAGCATT (sugars kkddddkdkdkddddd, PS) | – | – | – | – | 73 | –
52 | GTTCTAACTCTTGGGC (sugars k3 d4 k3 e1 d5, PS) | – | – | – | – | 58 | –
53 | GTTCTAACTCTTGGGC (sugars kekddddeekkddddd, PS) | – | – | – | – | 86 | –
54 | GTTCTAACTCTTGGGC (sugars kkdddddkekeddddd, PS) | – | – | – | – | 84 | –
55 | GTTCTAACTCTTGGGC (sugars kkkddddkdkdkdddd, PS) | – | – | – | – | 73 | –
56 | GTTCTAACTCTTGGGC (sugars kkkddddkekeddddd, PS) | – | – | – | – | 66 | –
57 | GTTTCATATTCACCCG (sugars k4 d9 k3, PS) | – | 82% | 92% | 97% | – | –
58 | GTTTTGTAAGTGCAAC (sugars kkddddkekekkdddd, PS) | – | – | – | – | 62 | –
59 | TAATGTCTCAAACTCC (sugars k4 d9 k3, PS) | – | 24% | 50% | 80% | – | –
60 | TAATTCTATTAGAGGG (sugars k2 d4 e3 k2 d5, PS) | – | – | – | – | 59 | –
61 | TAATTCTATTAGAGGG (sugars kkkddddkekekdddd, PS) | – | – | – | – | 41 | –
62 | TACATTTGGAGATCTG (sugars k4 d9 k3, PS) | – | 61% | 80% | 90% | – | –
63 | TAGTGCTATAGAGGGA (sugars k3 d10 k3, PS) | – | 57% | 86% | 95% | – | –
64 | TATCAGATGGGTACTT (sugars kkkddddkekeddddd, PS) | – | – | – | – | 37 | –
65 | TATTCTCATGGTACAG (sugars k3 d4 k3 e1 d5, PS) | – | – | – | – | 79 | –
66 | TATTTCTTGATGTGGT (sugars k2 d4 e4 k2 d4, PS) | – | – | – | – | 96 | –
67 | TATTTCTTGATGTGGT (sugars kkkddddkekekdddd, PS) | 17 | 61% | 80% | 89% | 95 | –
68 | TCACATACTCTCTGGG (sugars k4 d9 k3, PS) | – | 24% | 62% | 77% | – | –
69 | TCAGATGGGTACTTCT (sugars k2 d4 e3 k2 d5, PS) | – | – | – | – | 88 | –
70 | TCAGATGGGTACTTCT (sugars kkddddekekeddddd, PS) | 8 | 30% | 61% | 86% | 91 | –
71 | TCAGATGGGTACTTCT (sugars kkddddkdkdkddddd, PS) | – | – | – | – | 88 | –
72 | TCAGATGGGTACTTCT (sugars kkddddkekekkdddd, PS) | – | – | – | – | 62 | –
73 | TCAGTCAGCAGGAGTA (sugars k4 d9 k3, PS) | – | 55% | 69% | 70% | – | –
